Target: T1, Human TRPA1 (Homo sapiens, UniProt O75762)
T1 construct: expressed in transfected cells; host or cells: CHO cells
Assay: 45Calcium uptake assay: inhibition of AITC induced cellular uptake of radioactive calcium
Assay type: cell-based
Conditions: AITC (30 μM) induced 45Ca uptake, Human TRPA1 expressing CHO cells; for inhibition at 1 µM: read-out: Percentage inhibition at 1.0 μM; for inhibition at 10 µM: read-out: Percentage inhibition at 10.0 μM; for IC50: read-out: Human IC50 value (range)
Method in brief: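 CHO cells stably expressing human TRPA1 (~50,000/well) preincubated 10 min with compound (0.5% DMSO, medium with 0.1% BSA, 1.8 mM CaCl2), then 30 μM AITC plus 5 μCi/ml 45Ca2+ for 3 min. Lysate radioactivity counted by scintillation; IC50 by nonlinear regression of % maximal uptake.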

T1 sequence (O75762 whole entry): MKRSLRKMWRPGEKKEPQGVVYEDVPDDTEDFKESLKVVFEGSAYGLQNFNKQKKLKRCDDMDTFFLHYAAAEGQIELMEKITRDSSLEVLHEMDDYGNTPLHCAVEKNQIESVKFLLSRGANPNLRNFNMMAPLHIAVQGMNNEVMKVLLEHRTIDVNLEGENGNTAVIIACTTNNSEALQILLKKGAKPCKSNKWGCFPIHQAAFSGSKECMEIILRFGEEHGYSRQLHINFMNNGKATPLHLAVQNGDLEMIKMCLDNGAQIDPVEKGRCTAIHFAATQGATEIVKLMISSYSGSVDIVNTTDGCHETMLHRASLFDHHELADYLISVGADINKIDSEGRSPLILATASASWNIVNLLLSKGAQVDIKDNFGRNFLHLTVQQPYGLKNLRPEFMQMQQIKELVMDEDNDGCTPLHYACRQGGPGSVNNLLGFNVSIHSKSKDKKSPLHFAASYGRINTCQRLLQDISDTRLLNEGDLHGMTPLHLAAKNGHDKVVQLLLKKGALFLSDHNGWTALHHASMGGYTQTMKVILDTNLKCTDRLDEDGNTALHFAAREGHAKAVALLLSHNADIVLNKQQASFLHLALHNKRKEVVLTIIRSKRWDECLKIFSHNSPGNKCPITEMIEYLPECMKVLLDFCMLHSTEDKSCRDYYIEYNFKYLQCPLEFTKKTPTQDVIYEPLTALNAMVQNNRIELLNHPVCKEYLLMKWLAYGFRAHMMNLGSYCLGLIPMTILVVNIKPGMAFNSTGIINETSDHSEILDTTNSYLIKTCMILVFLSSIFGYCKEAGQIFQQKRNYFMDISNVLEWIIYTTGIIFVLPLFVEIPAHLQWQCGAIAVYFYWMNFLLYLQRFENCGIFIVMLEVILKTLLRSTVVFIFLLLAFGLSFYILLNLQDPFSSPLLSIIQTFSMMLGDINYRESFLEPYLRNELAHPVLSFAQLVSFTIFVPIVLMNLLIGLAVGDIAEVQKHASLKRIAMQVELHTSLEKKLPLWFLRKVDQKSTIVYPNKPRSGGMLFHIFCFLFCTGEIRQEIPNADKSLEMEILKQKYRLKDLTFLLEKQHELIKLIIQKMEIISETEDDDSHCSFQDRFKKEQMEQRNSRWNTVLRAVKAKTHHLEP

Compound	inhibition at 1 µM (1.0 μM test compound)	inhibition at 10 µM (10.0 μM test compound)	IC50	Percentage inhibition at 1.0 μM (1.0 μM test compound)	Percentage inhibition at 10.0 μM (10.0 μM test compound)
Cn1c(=O)c2c(cnn2CC(=O)Nc2nc(-c3cc(F)c(OCC(C)(C)C)c(Cl)c3)cs2)n(C)c1=O [Example 80, N-{4-[3-Chloro-4-(2,2-dimethylpropoxy)-5-fluorophenyl]-1,3-thiazol-2-yl}-2-(4,6-dimethyl-5,7-dioxo-4,5,6,7-tetrahydro-1H-pyrazolo[4,3-d]pyrimidin-1-yl)acetamide]	100%	100%	< 50 nM	–	–
Cn1c(=O)c2c(cnn2CC(=O)Nc2nc(-c3cc(F)c(OCC4CCC4)c(F)c3)cs2)n(C)c1=O [Example 81, N-{4-[4-(Cyclobutylmethoxy)-3,5-difluorophenyl]-1,3-thiazol-2-yl}-2-(4,6-dimethyl-5,7-dioxo-4,5,6,7-tetrahydro-1H-pyrazolo[4,3-d]pyrimidin-1-yl)acetamide]	94%	100%	< 50 nM	–	–
N-{4-[3,5-Dichloro-4-isobutoxyphenyl]-1,3-thiazol-2-yl}-2-(4,6-dimethyl-5,7-dioxo-4,5,6,7-tetrahydro-1H-pyrazolo[4,3-d]pyrimidin-1-yl)acetamide [Example 77]	–	–	50 to 100 nM	89.48%	99.58%

Continued, in another order:

inhibition at 1 µM (1.0 μM test compound)	inhibition at 10 µM (10.0 μM test compound)	IC50	Compound	Percentage inhibition at 1.0 μM (1.0 μM test compound)	Percentage inhibition at 10.0 μM (10.0 μM test compound)
92.8%	99%	50 to 100 nM	Cc1nn(CC(=O)Nc2nc(-c3cc(F)c(OCC(C)(C)C)c(F)c3)cs2)c2c(=O)n(C)c(=O)n(C)c12 [Example 82, N-[4-(3,5-Difluoro-4-(2,2-dimethylpropoxy)phenyl)-1,3-thiazol-2-yl]-2-(3,4,6-trimethyl-5,7-dioxo-4,5,6,7-tetrahydro-1H-pyrazolo[4,3-d]pyrimidin-1-yl)acetamide]	–	–
75.6%	95%	< 50 nM	Cc1nn(CC(=O)Nc2nc(-c3cc(Cl)c(OCC(C)(C)C)c(Cl)c3)cs2)c2c(=O)n(C)c(=O)n(C)c12 [Example 83, N-[4-(3,5-Dichloro-4-(2,2-dimethylpropoxy)phenyl)-1,3-thiazol-2-yl]-2-(3,4,6-trimethyl-5,7-dioxo-4,5,6,7-tetrahydro-1H-pyrazolo[4,3-d]pyrimidin-1-yl)acetamide]	–	–
17.2%	83.9%	–	Cn1c(=O)c2c(cnn2CC(=O)Nc2cc(-c3ccc(Br)cc3)on2)n(C)c1=O [Example 84, N-[5-(4-Bromophenyl)isoxazol-3-yl]-2-(4,6-dimethyl-5,7-dioxo-4,5,6,7,-tetrahydro-1H-pyrazolo[4,3-d]pyrimidin-1-yl)acetamide]	–	–
44.1%	78.2%	–	Cn1nc2c(c1CC(=O)Nc1nc(-c3ccc(C(F)(F)F)c(F)c3)c[nH]1)c(=O)n(C)c(=O)n2C [Example 85, N-{4-[3-Fluoro-4-(trifluoromethyl)phenyl]-1H-imidazol-2-yl]-2-(2,5,7-trimethyl-4,6-dioxo-4,5,6,7-tetrahydro-2H-pyrazolo[3,4-d]pyrimidin-3-yl)acetamide]	–	–

— patent US9000159B2 (Glenmark Pharmaceuticals, S.A., priority 2009, dated 2015)
